{"source": "patent US20200237731A1", "about": "“USE OF CLOXACILLIN TO INHIBIT/PREVENT BIOFILM FORMATION” (priority 2017, published 2020)", "origin": "cited, not measured here", "key": {"S. aureus strain USA 300": {"test_system": "S. aureus strain USA 300", "conditions": "sub-MIC doses; Mlynek et al., 2016; cited from earlier work"}, "[1]": {"test_system": "biofilm forming Staphylococcus aureus", "conditions": "compounds tested individually; Singh and Mishra, 2012; cited from earlier work"}, "Clostridium difficile": {"test_system": "Clostridium difficile", "conditions": "Vuotto et al., 2016; cited from earlier work"}, "S. aureus": {"test_system": "S. aureus", "conditions": "sub-MIC doses; Mirani et al., 2011; cited from earlier work"}, "[2]": {"test_system": "clinical isolates of S. aureus", "conditions": "in vitro; Tunney et al., 2007; cited from earlier work"}}}
{"molecule": "CC1(C)S[C@@H]2[C@H](NC(=O)[C@H](N)c3ccc(O)cc3)C(=O)N2[C@H]1C(=O)O", "note": "[amoxicillin]", "values": [{"measurement": "attachment of S. aureus strain USA 300", "setting": "S. aureus strain USA 300", "value": "induces attachment"}]}
{"molecule": "CC1(C)S[C@@H]2[C@H](NC(=O)[C@H](N)c3ccccc3)C(=O)N2[C@H]1C(=O)O", "note": "[ampicillin]", "values": [{"measurement": "preventive action against biofilm formation", "setting": "[1]", "value": "not sufficiently active"}]}
{"molecule": "Cc1ncc([N+](=O)[O-])n1CCO", "note": "[metronidazole]", "values": [{"measurement": "biofilm formation by Clostridium difficile", "setting": "Clostridium difficile", "value": "increases biofilm formation"}]}
{"molecule": "Cc1onc(-c2ccccc2)c1C(=O)N[C@@H]1C(=O)N2[C@@H]1SC(C)(C)[C@@H]2C(=O)O", "note": "[oxacillin]", "values": [{"measurement": "biofilm formation by S. aureus", "setting": "S. aureus", "value": "induces biofilm formation"}]}
{"molecule": "CN[C@H](CC(C)C)C(=O)N[C@H]1C(=O)N[C@@H](CC(N)=O)C(=O)N[C@H]2C(=O)N[C@H]3C(=O)N[C@H](C(=O)N[C@H](C(=O)O)c4cc(O)cc(O)c4-c4cc3ccc4O)[C@H](O)c3ccc(c(Cl)c3)Oc3cc2cc(c3O[C@@H]2O[C@H](CO)[C@@H](O)[C@H](O)[C@H]2O[C@H]2C[C@](C)(N)[C@H](O)[C@H](C)O2)Oc2ccc(cc2Cl)[C@H]1O", "note": "[vancomycin]", "values": [{"measurement": "biofilm formation by S. aureus", "setting": "S. aureus", "value": "induces biofilm formation"}]}
{"molecule": "gentamicin", "values": [{"measurement": "effect of treatment of bone cement on biofilm formation", "setting": "[2]", "value": "ineffectiveness"}]}
{"molecule": "penicillin", "values": [{"measurement": "preventive action against biofilm formation", "setting": "[1]", "value": "not sufficiently active"}]}
